Laboratory results reported in publication PMC6930659, “Antiprotozoal Activity of Turkish Origanum onites Essential Oil and Its Components” (Molecules, 2019).
≈ marks a conversion by molar mass, not a printed value. Where two headings read alike, the source gives them in different places.

What was measured:
[1] = test system: T. cruzi Tulahuen strain C2C4; experiment: In vitro assay for Trypanosoma cruzi in L-6 cells (β-galactosidase/CPRG); assay type: cell-based; conditions: highest concentration tested 90 μg/mL; for IC50: Trypanosoma cruzi, L6, Tulahuen C2C4 in L-6 cells, 96 h, means of two determinations ± deviation
Protocol: Rat skeletal myoblasts (L-6 cells) were seeded in 96 well microtiter plates (2000 cells/well) in 100 μL RPMI 1640 medium with 10% FBS and 2 mM L-glutamine for 24 h. After that, the medium was removed and replaced by 100 μL per well containing 5000 trypomastigote forms of T. cruzi Tulahuen strain C2C4, containing the β-galactosidase (Lac Z) gene. The medium was removed from the wells after 48 h, and replaced with 100 μL fresh medium with or without a serial drug dilution of seven 3-fold dilution steps covering a range from 90 to 0.123 μg/mL. After 96 h of incubation, the plates were inspected under an inverted microscope to assure growth of the controls and sterility, after which the substrate CPRG/Nonidet ([…]) was added to all wells. A color reaction developed within 2–6 h and could be read photometrically at 540 nm. Data were transferred into the graphic program Softmax Pro (Molecular Devices Cooperation, Sunnyvale, CA, USA) and the IC50 values were calculated from the sigmoidal dose response curves. Benznidazole was the reference drug.

[2] = test system: L. donovani (strain MHOM/ET/67/L82) amastigotes; experiment: In vitro assay for Leishmania donovani axenic amastigotes (resazurin); assay type: cell-based; conditions: 72 h, read-out: IC50 Leishmania donovani
Protocol: Amastigotes of L. donovani (strain MHOM/ET/67/L82) were grown in axenic culture at 37 °C in SM medium at pH 5.4 supplemented with 10% heat-inactivated FBS under an atmosphere of 5% CO2. Culture medium (100 μL) with 10^5 amastigotes from axenic culture with or without a serial drug dilution was seeded in 96 well microtiter plates. Serial drug was prepared covering a range of dilutions from 90 to 0.123 μg/mL. After 72 h of incubation, the plates were inspected under an inverted microscope to assure growth of the controls and sterile conditions. Subsequently, 10 μL resazurin solution (12.5 mg resazurin dissolved in 100 mL double-distilled water) was added to each well and the plates were incubated for another 2 h. The plates were then read with a Spectramax Gemini XS microplate fluorometer (Molecular Devices Cooperation, Sunnyvale, CA, USA) using an excitation wavelength of 536 nm and an emission wavelength of 588 nm. Data were analyzed using the software Softmax Pro (Molecular Devices Cooperation, Sunnyvale, CA, USA). A decrease of fluorescence (=inhibition) was expressed as percentage of the fluorescence of control cultures and plotted against the drug concentrations. From the sigmoidal inhibition curves, the IC50 values were calculated. Miltefosine was used as a reference drug.

[3] = test system: P. falciparium FCR-3 strain; parameters: method as in PMID 23082579; conditions: cited from earlier work
[4] = test system: chloroquine-resistant P. falciparum strain; conditions: reported to be inactive; cited from earlier work
L. infantum = test system: L. infantum; parameters: method as in doi:10.1016/j.indcrop.2015.09.049; conditions: cited from earlier work
P. falciparum = test system: P. falciparum; parameters: method as in PMID 22441836; conditions: cited from earlier work
T. cruzi epimastigotes = test system: T. cruzi epimastigotes; parameters: method as in PMID 17024354; conditions: 24 h incubation; cited from earlier work
T. cruzi trypomastigotes = test system: T. cruzi trypomastigotes; parameters: method as in PMID 17024354; conditions: 24 h incubation; cited from earlier work
[5] = test system: intracellular amastigotes of T.-cruzi-infected Vero cells; parameters: method as in PMID 20428679; conditions: cited from earlier work
Trypanosoma cruzi = test system: Trypanosoma cruzi; parameters: method as in earlier work; conditions: 200 mg/kg/day, intragastric route, 22nd day post-infection; cited from earlier work

Cc1ccc(C(C)C)cc1O [Carvacrol]
IC50 [1]: > 90 µg/mL | inhibitory activity against T. cruzi (in words) [1]: inactive | IC50 [2]: 13.1 ± 3.9 µg/mL (≈ 87.2 µM) | IC50 in vitro antimalarial activity [3]: 10 µg/mL (≈ 66.6 µM) | IC50 [4]: > 1 mM | IC50 L. infantum (L. infantum): 7.35 µg/mL (≈ 48.9 µM)

Cc1ccc(C(C)C)c(O)c1 [Thymol]
IC50 [1]: > 90 µg/mL | inhibitory activity against T. cruzi (in words) [1]: inactive | IC50 ([2]; axenic amastigotes, means of two determinations ± deviation): 17.3 ± 4.1 µg/mL (≈ 115 µM) | IC50 in vitro antimalarial activity [3]: 10 µg/mL (≈ 66.6 µM) | IC50 in vitro antimalarial activity (P. falciparum): 4.5 µg/mL (≈ 30 µM) | IC50 T. cruzi epimastigotes (T. cruzi epimastigotes): 62 µg/mL (≈ 413 µM) | IC50 T. cruzi trypomastigotes (T. cruzi trypomastigotes): 53 µg/mL (≈ 353 µM) | selective index ([5]; T.-cruzi-infected Vero cells): greater than 10 | IC50 intracellular amastigotes of T.-cruzi-infected Vero cells [5]: 3.2 µg/mL | parasitemia in T. cruzi infected albino mice (in words) (Trypanosoma cruzi): significant reduction in parasitemia
